One may read the IC50 as the concentration that gives 50% inhibition.

Each structure is given as a SMILES string.

In the first assay the test system is NCI-H295R. The experiment in a line: IC50 (antiproliferative, ATP content). Particulars: 48 h. In a few lines: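 Adrenocortical carcinoma cells in 1536-well plates (1500 per well, serum-free DMEM plus ITS, overnight culture) were exposed for 48 h at 37 °C, 5% CO2 to pin-transferred compounds at 8 final concentrations ranging 0.6 nM to 46 µM. ATP content was then read as CellTiter-Glo luminescence and normalised to vehicle and positive-control wells. The IC50 came from logistic curve fits, and any compound lacking a concentration response was recorded as above the top dose.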
As to `CCCc1c(OCCCCc2nnn[nH]2)ccc(C(C)=O)c1O`, the IC50 was more than 46 µM.

`CC=CC=NNC(=O)c1ccncc1`: the IC50 was more than 46 µM.

`CCC1(c2ccccc2)C(=O)NC(=O)NC1=O` displayed an IC50 of more than 46 µM.

With `CC(C)n1c(/C=C/[C@@H](O)C[C@@H](O)CC(=O)[O-])c(-c2ccc(F)cc2)c2ccccc21.[Na+]`, the IC50 was more than 46 µM.

`CCCC(CCC)C(=O)O`: the IC50 is more than 46 µM.

Consider `CCCOC(=O)c1ccc(O)cc1`, for which the IC50 is more than 46 µM.

`O=C(c1cc2ccccc2o1)N1CCN(Cc2ccccc2)CC1` showed an IC50 of more than 46 µM.

`CCOC(N)=O` returned an IC50 of more than 46 µM.

`CSCCC(N)C(=O)O` (stereo not drawn): the IC50 was more than 46 µM.

`CCCCCC(C=O)=Cc1ccccc1` had an IC50 of more than 46 µM.

With `N[C@H](CO)C(=O)O`, the IC50 is more than 46 µM.

For `O=C1CN=C(c2ccccc2)c2cc(Cl)ccc2N1CC1CC1`, the IC50 is more than 46 µM.

Take `O=C1CCCCC1CN1CCCCC1` (stereo not drawn): the IC50 is more than 46 µM.

Regarding `CCCC(=O)O[C@]1(C(=O)CO)CC[C@H]2[C@@H]3CCC4=CC(=O)CC[C@]4(C)[C@H]3[C@@H](O)C[C@@]21C`, the IC50 was more than 46 µM.

For the compound `C[N+]12CCC(CC1)C(OC(=O)C(O)(c1ccccc1)c1ccccc1)C2.[Br-]` (stereo not drawn), the IC50 was more than 46 µM.

`NC(=O)CC[C@@H](N)C(=O)O` came in with an IC50 of more than 46 µM.

`C1CCN2C[C@@H]3C[C@@H](CN4CCCC[C@@H]34)[C@H]2C1` showed an IC50 of more than 46 µM.

`COC(=O)[C@H]1[C@H]2C[C@H]3c4[nH]c5ccccc5c4CCN3C[C@H]2CC[C@@H]1O` yielded an IC50 of more than 46 µM.

With `CO/N=C(\C(=O)N[C@@H]1C(=O)N2C(C(=O)[O-])=CCS[C@H]12)c1csc(N)n1.[Na+]`, the IC50 was more than 46 µM.

`CC1(c2ccccc2)OC(C(=O)O)=CC1=O` (stereo not drawn) came in with an IC50 of more than 46 µM.

`Nc1nc(NC2CC2)c2ncn([C@@H]3C=C[C@@H](CO)C3)c2n1` came in with an IC50 of more than 46 µM.

Regarding `CN(c1nccc(=O)[nH]1)C1CCN(c2nc3ccccc3n2Cc2ccc(F)cc2)CC1`, the IC50 was more than 46 µM.

As for `CCCCC[C@H](O)/C=C/[C@H]1[C@H](O)CC(=O)[C@@H]1C/C=C\CCCC(=O)O`, the IC50 is more than 46 µM.

The compound `O=C(C3)C(C(O)=CC(O[C@H]4[C@H](O)[C@@H](O)[C@H](O)[C@@H](CO[C@H]5[C@H](O)[C@H](O)[C@@H](O)[C@H](C)O5)O4)=C2)=C2O[C@@H]3[C@@]1=CC(O)=C(OC)C=C1` gave an IC50 of more than 46 µM.

In the case of `CNC(=O)OCC[N+](C)(C)C.[Cl-]`, the IC50 was more than 46 µM.

In turn, `Cc1ccccn1` came in with an IC50 of more than 46 µM.

Compound `CN1CCN(C(=O)C2CCCCC2)CC1` displayed an IC50 of more than 46 µM.

Compound `O=[C@](OC)[C@H]3[C@@]2([H])C[C@](N4C[C@]([H])2C[C@H](OC)[C@@H]3OC)([H])C1=C(CC4)C(C=C5)=C(C=C5OC)N1.Cl` registered an IC50 of more than 46 µM.

`O=C(NCN1CCOCC1)c1cnccn1`: the IC50 is more than 46 µM.

`Cc1c(C(C)C)c(=O)n(-c2ccccc2)n1C` came in with an IC50 of more than 46 µM.

As for `C/C(=N\Cc1ccccc1)c1ccccc1O`, the IC50 was more than 46 µM.

Regarding `Cc1ccc(S(=O)(=O)NC(=O)NC2CCCCC2)cc1`, the IC50 was more than 46 µM.

As for `Cc1ncc([N+](=O)[O-])n1CC(C)O` (stereo not drawn), the IC50 is more than 46 µM.

With `C[C@](N)(Cc1ccc(O)cc1)C(=O)O`, the IC50 was more than 46 µM.

Turning to `O[C@@H]3C\C4=C\C[C@@H]1[C@H](CC[C@]2(C)[C@@H](O)CC[C@@H]12)[C@@]4(C)CC3`, the IC50 is more than 46 µM.

For the compound `CC1(C)S[C@@H]2[C@H](/N=C/N3CCCCCC3)C(=O)N2[C@H]1C(=O)O`, the IC50 is more than 46 µM.

Compound `Cc1ccc(S(=O)(=O)O)cc1.NC1CCN(c2nc3c(cc2F)c(=O)c(C(=O)O)cn3-c2ccc(F)cc2F)C1` (stereo not drawn) yielded an IC50 of more than 46 µM.

The test system of another assay is NCI-H295R. The experiment in a line: maximal response (efficacy) relative to DMSO (0%) and doxorubicin (-100%); higher = less growth inhibition. Particulars: 48 h.
`OC[C@H]1O[C@@H](n2cnc3c(O)ncnc32)[C@H](O)[C@@H]1O`: the maximal response was found to be 26.5%.

On to `CCCCOc1ccc(CC(=O)NO)cc1`, for which the maximal response is -24%.

On to `Oc1ccc(O)cc1`, for which the maximal response is -31.2%.

For the compound `COC(=O)C1=C(C#N)NC(C)=C(C(=O)OC(C)C)C1c1cccc([N+](=O)[O-])c1` (stereo not drawn), the maximal response is -23.9%.

Consider `CC(C)c1c(C(=O)Nc2ccccc2)c(-c2ccccc2)c(-c2ccc(F)cc2)n1CC[C@@H](O)C[C@@H](O)CC(=O)[O-].CC(C)c1c(C(=O)Nc2ccccc2)c(-c2ccccc2)c(-c2ccc(F)cc2)n1CC[C@@H](O)C[C@@H](O)CC(=O)[O-].[Ca+2]`, for which the maximal response was -29.1%.

Take `CCc1cc(Cl)c(OC)c(C(=O)NC[C@@H]2CCCN2CC)c1O.Cl`: the maximal response is -24.8%.

For `C/C(=C\c1csc(C)n1)[C@@H]1C[C@@H]2O[C@]2(C)CCC[C@H](C)[C@H](O)[C@@H](C)C(=O)C(C)(C)[C@@H](O)CC(=O)O1`, the maximal response is -57.6%.

Turning to `Nc1ncnc2[nH]cnc12`, the maximal response stood at 30.9%.

With `O[C@@H]1C4=C(C)[C@@H](OC([C@H](O)[C@H]([C@@]6=CC=CC=C6)NC(OC(C)(C)C)=O)=O)C[C@@](C(C)4C)(O)[C@@H](OC(C5=CC=CC=C5)=O)[C@@]([C@]2(OC(C)=O)CO[C@@H]2C[C@@H]3O)([H])[C@]3(C)C1=O`, the maximal response was -59.5%.

`COC1=CC(=O)C[C@@H](C)[C@]12Oc1c(Cl)c(OC)cc(OC)c1C2=O`: the maximal response is -30.5%.

As for `CCCSc1ccc2[nH]c(NC(=O)OC)nc2c1`, the maximal response was -55.1%.

Regarding `O=C(Nc1ncc([N+](=O)[O-])s1)c1cccs1`, the maximal response was -58.5%.

On to `COc1cc(C(=O)OCCCN2CCCN(CCCOC(=O)c3cc(OC)c(OC)c(OC)c3)CC2)cc(OC)c1OC`, for which the maximal response was -31.2%.

Take `O=[N+]([O-])c1cc(I)c(O)c(I)c1`: the maximal response was -32.6%.

On to `C[C@@H]1CCC2[C@@H](C)[C@@H](O)O[C@@H]3O[C@@]4(C)CC[C@@H]1[C@@]23OO4` (stereo partly drawn), for which the maximal response is -56.4%.

As to `Cc1ccc2c(Br)cc(Br)c(O)c2n1`, the maximal response was -71.4%.

As to `CC(=O)O[C@H]\1CC[C@H]4C(=C/1)/CC[C@@H]2[C@@H]4CC[C@]3(C)[C@@](CC[C@@H]23)(C#C)OC(C)=O`, the maximal response was -26.3%.

With `CCCCc1ccc2[nH]c(NC(=O)OC)nc2c1`, the maximal response was -49.6%.

Turning to `O=[C@@](OC)[C@](C(N3)=C(C4)C2=C3C=CC=C2)([C@@]5=CC([C@]69[C@]8([H])[C@](C=CCN8CC9)(CC)[C@@H](OC(C)=O)[C@](O)([C@](OC)=O)[C@@]([H])6N7C)=C7C=C5OC)C[C@]1([H])C=C(CC)CN4C1.O=C(O)C(O)C(O)C(O)=O.O=C(O)C(O)C(O)C(O)=O`, the maximal response is -56.6%.

In the case of `Nc1nc(Cl)nc2c1ncn2[C@@H]1O[C@H](CO)[C@@H](O)[C@@H]1F`, the maximal response is -29.5%.

Regarding `CN(Cc1ccc(C(C)(C)C)cc1)Cc1cccc2ccccc12`, the maximal response was -43.8%.

Consider `CN(C)CCCN1c2ccccc2CCc2ccc(Cl)cc21`, for which the maximal response was -31.2%.

For the compound `CC[C@@]1(O)C(=O)OCc2c1cc1n(c2=O)Cc2cc3c(CN(C)C)c(O)ccc3nc2-1.Cl`, the maximal response was -36.8%.

For the compound `COC(=O)Nc1nc2cc(C(=O)c3ccccc3)ccc2[nH]1`, the maximal response was -50.2%.

As for `COC(=O)Nc1nc2cc(C(=O)c3cccs3)ccc2[nH]1`, the maximal response is -53.8%.

In the case of `CCCOc1ccc2nc(NC(=O)OC)sc2c1`, the maximal response was -48.5%.

Regarding `Nc1ccc(O)c(C(=O)O)c1`, the maximal response was -20.8%.

In the case of `C[C@]12CCC(=O)C=C1[C@@H]1C[C@@H]1[C@H]1[C@@H]3[C@@H]4C[C@@H]4[C@@]4(CCC(=O)O4)[C@@]3(C)CC[C@@H]12`, the maximal response is -33.2%.

As for `CCC(CC)(CC(=O)Nc1cccc(/C=C/c2nc(C3CCC3)cs2)c1)C(=O)O`, the maximal response was -34.3%.

As for `CC(CN(C)C)CN1c2ccccc2Sc2ccc(C(F)(F)F)cc21.O=C(O)C=CC(=O)O` (stereo not drawn), the maximal response was -30.2%.

As to `Cl.Cl.O=C1c2c(O)ccc(O)c2C(=O)c2c(NCCNCCO)ccc(NCCNCCO)c21`, the maximal response is -59.3%.

As to `O=C([O-])C1=C(CSc2nnnn2CS(=O)(=O)[O-])CS[C@@H]2[C@H](NC(=O)[C@H](O)c3ccccc3)C(=O)N12.[Na+].[Na+]`, the maximal response was 25.5%.

As to `COc1cc([C@@H]2c3cc4c(cc3[C@H](O)[C@H]3COC(=O)[C@H]23)OCO4)cc(OC)c1OC`, the maximal response was -50.8%.

For the compound `COc1cc2c(c(OC)c1OC)-c1ccc(OC)c(=O)cc1[C@@H](NC(C)=O)CC2`, the maximal response was -49.9%.

On to `Clc1ccc(C(Cn2ccnc2)OCc2csc3c(Cl)cccc23)c(Cl)c1.O=[N+]([O-])O` (stereo not drawn), for which the maximal response is -24.9%.

As to `Nc1ccc(C(=O)Nc2ccccc2N)cc1`, the maximal response is -43.9%.

Consider `O=C1C(O)=C([C@H]2CC[C@H](c3ccc(Cl)cc3)CC2)C(=O)c2ccccc21`, for which the maximal response was -51%.

For the compound `COc1cccc(N(C)C(=S)Oc2ccc3c(c2)CCCC3)n1`, the maximal response was -47.1%.

Regarding `Nc1c(/N=N/c2ccc(-c3ccc(/N=N/c4cc(S(=O)(=O)[O-])c5ccccc5c4N)cc3)cc2)cc(S(=O)(=O)[O-])c2ccccc12.[Na+].[Na+]`, the maximal response was -53.2%.

Consider `CC1=CC(=O)[N-]S(=O)(=O)O1.[K+]`, for which the maximal response was -79.3%.

In the case of `N[C@H](C(=O)O)[C@@H]1CC(Cl)=NO1`, the maximal response was -39.1%.

Source of the values: the supplement of paper PMC3493320.
